{
  "source": "patent US8461184B2",
  "about": "“Sulphur containing pyrazole derivatives as selective cannabinoid CB1 receptor antagonists” (Solvay Pharmaceuticals B.V., priority 2006, dated 2013)",
  "key": {"[1]": {"molecular_target": "T1, CB1 receptor (Rattus norvegicus, UniProt P20272)", "T1 construct": "from tissue; host or cells: whole animal: male normotensive rats (Harlan)", "T1 sequence (P20272 whole entry)": "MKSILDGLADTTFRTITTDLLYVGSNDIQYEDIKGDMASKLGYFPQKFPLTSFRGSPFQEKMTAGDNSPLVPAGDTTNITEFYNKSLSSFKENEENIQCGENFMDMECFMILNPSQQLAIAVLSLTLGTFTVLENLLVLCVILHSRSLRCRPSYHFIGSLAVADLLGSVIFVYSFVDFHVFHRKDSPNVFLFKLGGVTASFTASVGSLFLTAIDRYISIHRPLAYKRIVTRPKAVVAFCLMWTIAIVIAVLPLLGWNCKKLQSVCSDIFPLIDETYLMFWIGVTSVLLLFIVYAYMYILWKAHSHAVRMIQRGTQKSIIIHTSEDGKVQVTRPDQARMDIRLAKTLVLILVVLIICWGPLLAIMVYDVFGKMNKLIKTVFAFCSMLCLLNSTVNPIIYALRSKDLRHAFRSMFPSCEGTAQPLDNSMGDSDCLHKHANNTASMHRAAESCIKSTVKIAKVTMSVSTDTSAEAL", "test": "CP-55,940 induced hypotension in the rat", "assay_type": "in vivo", "conditions": "read-out: Blood pressure (rat) ED50", "protocol": "Blood pressure was measured, via a cannula inserted into the left carotid artery, by means of a Spectramed DTX-plus pressure transducer (Spectramed B. V., Bilthoven, The Netherlands). […] Heart rate was derived from the pulsatile pressure signal. […] The injection volume was 10 ml/kg."}, "[2]": {"molecular_target": "T2, human cannabinoid CB1 receptor (Homo sapiens, UniProt P21554)", "T2 construct": "expressed in transfected cells; host or cells: Chinese hamster ovary (CHO) cells, membrane preparation", "T2 sequence (P21554 whole entry)": "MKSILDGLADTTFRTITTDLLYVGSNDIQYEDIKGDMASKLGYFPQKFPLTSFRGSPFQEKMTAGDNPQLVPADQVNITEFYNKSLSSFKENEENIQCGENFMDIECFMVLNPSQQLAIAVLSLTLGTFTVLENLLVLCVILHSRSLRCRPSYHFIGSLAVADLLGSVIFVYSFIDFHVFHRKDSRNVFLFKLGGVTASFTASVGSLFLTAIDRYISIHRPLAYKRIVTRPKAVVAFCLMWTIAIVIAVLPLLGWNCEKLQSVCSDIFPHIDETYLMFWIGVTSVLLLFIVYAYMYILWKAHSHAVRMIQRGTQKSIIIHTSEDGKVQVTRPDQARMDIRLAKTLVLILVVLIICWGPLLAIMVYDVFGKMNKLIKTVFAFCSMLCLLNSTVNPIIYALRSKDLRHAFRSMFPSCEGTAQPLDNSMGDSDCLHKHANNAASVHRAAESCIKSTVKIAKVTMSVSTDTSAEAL", "test": "In vitro affinity for human cannabinoid-CB1 receptors ([3H]CP-55,940 radioligand, CHO cell membranes)", "assay_type": "binding", "conditions": "for CB1/CB2 ratio: CB1/CB2 receptor selectivity ratio from hCB1 and hCB2 Ki; for Ki: human CB1 receptor in CHO cell membranes, [3H]CP-55,940, mean of at least three independent experiments, read-out: hCB1 Ki", "protocol": "In vitro affinity for human cannabinoid-CB1 receptors.\n(§1) The affinity of the compounds of the invention for cannabinoid CB1 receptors can be determined using membrane preparations of Chinese hamster ovary (CHO) cells in which the human cannabinoid CB1 receptor is stably transfected in conjunction with [^3H]CP-55,940 as radioligand. After incubation of a freshly prepared cell membrane preparation with the [^3H]-ligand, with or without addition of compounds of the invention, separation of bound and free ligand is performed by filtration over glassfiber filters. Radioactivity on the filter is measured by liquid scintillation counting."}, "[3]": {"molecular_target": "T3, human cannabinoid CB2 receptor (Homo sapiens, UniProt P34972)", "T3 construct": "expressed in transfected cells; host or cells: Chinese hamster ovary (CHO) cells, membrane preparation", "T3 sequence (P34972 whole entry)": "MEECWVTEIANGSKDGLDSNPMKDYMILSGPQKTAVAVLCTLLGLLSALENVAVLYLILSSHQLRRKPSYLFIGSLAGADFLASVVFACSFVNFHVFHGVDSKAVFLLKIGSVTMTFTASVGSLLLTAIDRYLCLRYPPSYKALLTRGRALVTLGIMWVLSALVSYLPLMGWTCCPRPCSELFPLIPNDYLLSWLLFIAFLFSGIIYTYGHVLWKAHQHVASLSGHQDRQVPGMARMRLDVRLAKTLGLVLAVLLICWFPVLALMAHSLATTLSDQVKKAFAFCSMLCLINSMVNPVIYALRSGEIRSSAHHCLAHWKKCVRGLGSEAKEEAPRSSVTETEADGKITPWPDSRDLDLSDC", "test": "In vitro affinity for human cannabinoid-CB2 receptors ([3H]CP-55,940 radioligand, CHO cell membranes)", "assay_type": "binding", "conditions": "mean of at least three independent experiments, read-out: hCB2 Ki", "protocol": "In vitro affinity for human cannabinoid-CB2 receptors.\nas §1, with “cannabinoid CB2” for “cannabinoid CB1”, “filter was” for “filter is”"}, "[4]": {"conditions": "p.o., antagonism of hypotension induced by CP-55,940 (0.1 mg/kg i.v.), anaesthetized male normotensive rats"}},
  "note": "Where two headings read alike, the source gives them in different places.",
  "data": [
    {"smiles": "CSc1c(C(=O)NN2CCCCC2)nn(-c2ccc(Cl)cc2Cl)c1-c1ccc(Cl)cc1", "note": "[Comp. 1, 5-(4-Chlorophenyl)-1-(2,4-dichlorophenyl)-4-methylsulfanyl-N-(piperidin-1-yl)-1H-pyrazole-3-carboxamide]", "values": [
      {"measurement": "melting point", "result": "172.4 to 174.5", "unit": "°C"},
      {"measurement": "ED50", "setting": "[1]", "result": 1.5, "unit": "mg/kg"},
      {"measurement": "CB1/CB2 ratio", "setting": "[2]", "result": 67},
      {"measurement": "Ki", "setting": "[2]", "result": 10, "unit": "nM"},
      {"measurement": "Ki", "setting": "[3]", "result": 668, "unit": "nM"}
    ]},
    {"smiles": "CSc1c(C(=O)NN2CCCC2)nn(-c2ccc(Cl)cc2Cl)c1-c1ccc(Cl)cc1", "note": "[Comp. 2, 5-(4-Chlorophenyl)-1-(2,4-dichlorophenyl)-4-methylsulfanyl-N-(pyrrolidin-1-yl)-1H-pyrazole-3-carboxamide]", "values": [
      {"measurement": "ED50", "setting": "[1]; [4]", "result": 1.9, "unit": "mg/kg"},
      {"measurement": "CB1/CB2 ratio", "setting": "[2]", "result": ">34"},
      {"measurement": "Ki", "setting": "[2]", "result": "< 10", "unit": "nM"},
      {"measurement": "Ki", "setting": "[3]", "result": 340, "unit": "nM"}
    ]},
    {"smiles": "CSc1c(C(=O)NN2CCCCCC2)nn(-c2ccc(Cl)cc2Cl)c1-c1ccc(Cl)cc1", "note": "[Comp. 3, 5-(4-Chlorophenyl)-1-(2,4-dichlorophenyl)-4-methylsulfanyl-N-(azepan-1-yl)-1H-pyrazole-3-carboxamide]", "values": [
      {"measurement": "ED50", "setting": "[1]; [4]", "result": 3.1, "unit": "mg/kg"},
      {"measurement": "CB1/CB2 ratio", "setting": "[2]", "result": 25},
      {"measurement": "Ki", "setting": "[2]", "result": 20, "unit": "nM"},
      {"measurement": "Ki", "setting": "[3]", "result": 500, "unit": "nM"}
    ]}
  ]
}
